The record followed here is patent EP4678638A1, “NEW E3 UBIQUITIN LIGASE LIGAND, PROTEIN DEGRADATION AGENT AND USE THEREOF” (priority 2023, dated 2024).

Where two headings read alike, the source gives them in different places.

The subject of assay [1] is MGC-803. The assay can be described thus: CCK-8 proliferation, MGC-803 (heads: MGC80-3, MGC803). In kind it is cell-based, Human. The settings on record: Homo sapiens, MGC-803. As for the experimental part: (§1) The tumor cells used herein were cultured in a cell culture medium listed in table A1 at 37°C in an incubator with 5% CO2. Prior to experimentation, all cell lines used were correctly identified by STR profiling, and tested negative for mycoplasma contamination using a mycoplasma detection kit through routine screenings. Table A1. Tumor cells and cell culture medium used in the present disclosure
(§2) IC50 values of the compounds of the present disclosure (including the compounds in Table 1, and compounds of examples) were measured using the Meilun Cell Counting Kit-8 kit from Dalian Meilun Biotech Co., Ltd. Assay details are as follows: tumor cells were seeded in a 96-well plate at a density listed in Table A2. After 24h, 100 µL of the inoculated cells were treated with 0.5µL of the compounds of the present disclosure (including the compounds in Tables 1 and 2, and compounds of examples) at 10 different successively decreasing concentrations (starting at the highest concentration of 10µM; 5-fold serial dilutions). After the cells were treated with the compounds of the present disclosure for a period of time, the cell viability detection reagent was added to the culture medium for cell viability assessment according to the instructions provided with the CCK-8 kit. […] The growth inhibition of the compounds of the present disclosure on cells was plotted by Prism Graphpad software, and the IC50 values of the compounds of the present disclosure were calculated therefrom. […] Seeding protocol and treatment time for tumor cells

Assay [2] relates to SW620. Nature of the assay: CCK-8 proliferation, SW620. In kind it is cell-based. As to conditions: Homo sapiens, SW-620; CCK-8; 96 hours; read-out: Inhibitory activity (IC50) on tumor cell proliferation, SW620. How it is done:
as §1, §2

The test system of assay [3] is Jurkat. The assay can be described thus: CCK-8 proliferation, Jurkat. It counts as cell-based, Human. The settings on record: Homo sapiens; Table B10, compounds designed based on the IRAK4 inhibitors; Jurkat cells; read-out: Inhibitory activity (IC50, nM) on tumor cell proliferation, Jurkat. How it is done:
as §1, §2

The subject of assay [4] is MM.1S. The assay can be described thus: CCK-8 proliferation, MM.1S. It counts as cell-based. The settings on record: Homo sapiens, MM1.S; Table B10, compounds designed based on the IRAK4 inhibitors; MM.1S cells; read-out: Inhibitory activity (IC50, nM) on tumor cell proliferation, MM.1S. In short, it runs like this:
(§3)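 Tumor cells were cultured at 37°C with 5% CO2, seeded, and after 24h treated with compounds at 10 concentrations starting at 10µM (5-fold serial dilutions).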

Assay [5] concerns SR. Nature of the assay: CCK-8 proliferation, SR. In kind it is cell-based, Human. The settings on record: Homo sapiens; Table B10, compounds designed based on the IRAK4 inhibitors; SR cells; read-out: Inhibitory activity (IC50, nM) on tumor cell proliferation, SR. In short, it runs like this:
as §3

In assay [6] the target is T1, IRAK4 (Homo sapiens, UniProt Q9NWZ3).
T1 construct: evaluate the effects of the compounds of the present disclosure on the expression of target proteins in cells; endogenous in cells; host or cells: hPBMC
T1 sequence (Q9NWZ3 1-460): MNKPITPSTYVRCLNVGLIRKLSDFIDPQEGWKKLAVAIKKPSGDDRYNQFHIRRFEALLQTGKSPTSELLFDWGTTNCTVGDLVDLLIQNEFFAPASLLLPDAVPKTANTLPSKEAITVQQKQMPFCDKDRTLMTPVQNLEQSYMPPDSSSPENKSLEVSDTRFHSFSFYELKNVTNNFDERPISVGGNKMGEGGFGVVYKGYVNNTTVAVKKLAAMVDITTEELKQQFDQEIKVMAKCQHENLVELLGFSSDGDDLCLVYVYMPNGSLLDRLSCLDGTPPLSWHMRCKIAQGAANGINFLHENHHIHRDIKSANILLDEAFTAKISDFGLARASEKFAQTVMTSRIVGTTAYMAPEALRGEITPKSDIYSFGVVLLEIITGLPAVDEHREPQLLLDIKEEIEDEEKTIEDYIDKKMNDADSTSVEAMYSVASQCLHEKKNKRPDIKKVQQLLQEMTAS
The assay can be described thus: Western blot degradation of IRAK4 (hPBMC). In kind it is cell-based. The settings on record: Table D1. The gist of the method: (§4)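 After compound exposure, cells were harvested and lysates run on SDS-PAGE, transferred to nitrocellulose and probed with antibodies. Remaining target (%) was computed from band grayscale relative to an internal control protein and normalised; degradation (%) was 100% minus that.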
Background: A western blot detects proteins with antibodies after separation by electrophoresis.

In assay [7] the test system is H1975-1µM Osimertinib cells. The assay can be described thus: CCK-8 proliferation, osimertinib-resistant H1975 cells. In kind it is cell-based, Human. As to conditions: Homo sapiens, NCI-H1975; CCK-8; osimertinib-resistant H1975 cells obtained by treating H1975 cells with 1 µM Osimertinib for 3 months; read-out: Inhibitory activity (IC50) on tumor cell proliferation, H1975-1µm Osimertinib. As for the experimental part:
as §1, §2

Assay [8] relates to EGFR. The assay can be described thus: Western blot degradation of EGFR (H1975 Cell). The settings on record: Table D2. It counts as cell-based, Human. The gist of the method:
as §4

The test system of assay [9] is H1975. Nature of the assay: CCK-8 proliferation, NCI-H1975 (H1975). In kind it is cell-based, Human. As to conditions: Homo sapiens, NCI-H1975; CCK-8; 96 hours; read-out: Inhibitory activity (IC50) on tumor cell proliferation, H1975. The gist of the method: as §3
[10] abbreviates: Table B10, compounds designed based on the IRAK4 inhibitors, MGC803 cells, read-out: Inhibitory activity (IC50, nM) on tumor cell proliferation, MGC803.

`CCC(=C(c1ccc(O)cc1)c1ccc(N2CCN(Cc3ccc(C4CCC(=O)NC4=O)c(F)c3)CC2)cc1)c1ccc(O)cc1` (stereo not shown) [GT-04150, 3-(4-((4-(4-(1,2-bis(4-hydroxyphenyl)but-1-en-1-yl)phenyl)piperazin-1-yl)methyl)-2-fluorophenyl)piperidine-2,6-dione]: the IC50 was > 10000 nM in assay [1] (CCK-8, 72 hours, read-out: Inhibitory activity (IC50) on tumor cell proliferation, MGC80-3) and < 1 nM in assay [2].

As for `O=C1CCN(c2ccc(CN3CCC(N4CCN(c5ccc6c(c5)nc(NC(=O)c5cccc(C(F)(F)F)c5)n6[C@H]5CC[C@@H](CO)CC5)CC4)CC3)cc2)C(=O)N1` [GT-05021, N-(5-(4-(1-(4-(2,4-dioxotetrahydropyrimidin-1(2H)-yl)benzyl)piperidin-4-yl)piperazin-1-yl)-1-((1s,4s)-4-(hydroxymethyl)cyclohexyl) -1H-benzo[d]imidazol-2-yl)-3-(trifluoromethyl)benzamide], the IC50 in assay [1] (setting [10]), in [3] and in assay [4] was 500 to 1000 nM in each case.

As to `O=C1CCN(c2cccc(CN3CCC(N4CCN(c5ccc6c(c5)nc(NC(=O)c5cccc(C(F)(F)F)c5)n6[C@H]5CC[C@@H](CO)CC5)CC4)CC3)c2)C(=O)N1` [GT-05022, N-(5-(4-(1-(3-(2,4-dioxotetrahydropyrimidin-1(2H)-yl)benzyl)piperidin-4-yl)piperazin-1-yl)-1-((1s,4s)-4-(hydroxymethyl)cyclohexyl) -1H-benzo[d]imidazol-2-yl)-3-(trifluoromethyl)benzamide], the IC50 in [1] (setting [10]), in assay [5], in assay [3] and in assay [4] was 500 to 1000 nM each time. In addition, the “Degradation of substrate protein IRAK4 (substrate protein remaining %)” value in assay [6] is reported as “A (A is defined as 0% ≤ substrate protein remaining % ≤ 80%)”.

In the case of `O=C1CCN(c2ccc(CN3CCC(N4CCN(c5ccc6c(c5)nc(NC(=O)c5cccc(C(F)(F)F)c5)n6[C@H]5CC[C@@H](CO)CC5)CC4)CC3)nc2)C(=O)N1` [GT-05024, N-(5-(4-(1-((5-(2,4-dioxotetrahydropyrimidin-1(2H)-yl)pyridin-2-yl)methyl)piperidin-4-yl)piperazin-1-yl)-1-((1s,4s)-4-(hydroxymethyl)cyclohexyl) -1H-benzo[d]imidazol-2-yl)-3-(trifluoromethyl)benzamide], the IC50 in [1] (setting [10]), in [5], in assay [3] and in assay [4] was 500 to 1000 nM in each case.

As to `COC1CCN(c2nccc(Nc3cc4c(cn3)c(N3CCN(Cc5ccc(N6CCC(=O)NC6=O)cc5)CC3)nn4C(C)C)n2)CC1` [GT-06037, 1-(4-((4-(1-isopropyl-6-((2-(4-methoxypiperidin-1-yl)pyrimidin-4-yl)amino)-1H-pyrazolo[4,3-c]pyridin-3-yl)piperazin-1-yl)methyl)phenyl)dihydropyr imidine-2,4(1H,3H)-dione], the IC50 in [7] lay within 1 to 10 nM.

With `CC(C)n1nc(N2CCC(N3CCN(Cc4ccc(C5CCC(=O)NC5=O)cc4)CC3)CC2)c2cnc(Nc3ccnc(-c4cnn(S(=O)(=O)C5CC5)c4)n3)cc21` (stereo not shown) [GT-06078, 3-(4-((4-(1-(6-((2-(1-(cyclopropylsulfonyl)-1H-pyrazol-4-yl)pyrimidin-4-yl)amino)-1-isopropyl-1H-pyrazolo[4,3-c]pyridin-3-yl)piperidin-4-yl)piperazin-1-yl)methyl)phenyl)piperidine-2,6-dione], in assay [8], the “Degradation of substrate protein EGFR (substrate protein remaining %)” value was “A (A is defined as 0% ≤ substrate protein remaining % ≤ 80%)”. For the same molecule, the IC50 in assay [7] lay in the range of 100 to 500 nM.

On to `O=C1CCC(Nc2cccc(CN3CCN(c4ccc(-c5cc(F)c6c(c5)C(=O)N(C(C(=O)Nc5nccs5)c5ncn7c5CCC7)C6)cc4)CC3)c2)C(=O)N1` (stereo not shown) [GT-06188, 2-(6,7-dihydro-5H-pyrrolo[1,2-c]imidazol-1-yl)-2-(6-(4-(4-(3-((2,6-dioxopiperidin-3-yl)amino)benzyl)piperazin-1-yl)phenyl)-4-fluoro-1-oxoisoindolin-2-yl)-N-(thiazol-2-yl)acetamide], for which the IC50 in [9] was 1 to 10 nM; in assay [7], < 1 nM.
